From ChEMBL document CHEMBL1201862, “PubChem BioAssay data set” (2004)
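Protocol summary: plate cells (96-well), add compound at 5 concentrations, incubate 48 h, interpolate endpoints linearly. GI50 is the concentration that inhibits growth by half.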 Active and inactive are the calls of the source. Rule as the data show it: active = GI50 up to about 1.1 µM and inactive = higher.

Key:
Assay in all cases: growth of human tumour cells (NCI), 48 h
TK-10 = tested on: TK-10
COLO 205 = tested on: COLO 205
MDA-MB-435 = tested on: MDA-MB-435
SW-620 = tested on: SW-620
NCI-H522 = tested on: NCI-H522
MCF7 = tested on: MCF7
SK-MEL-2 = tested on: SK-MEL-2
UACC-257 = tested on: UACC-257
LOX IMVI = tested on: LOX IMVI
SNB-19 = tested on: SNB-19
EKVX = tested on: EKVX
HCT-116 = tested on: HCT-116
SNB-75 = tested on: SNB-75
M14 = tested on: M14
NCI-H460 = tested on: NCI-H460
OVCAR-4 = tested on: OVCAR-4
HL-60 = tested on: HL-60
PC-3 = tested on: PC-3
SK-MEL-28 = tested on: SK-MEL-28
SR = tested on: SR

Measured: GI50

Cn1c(S)nnc1CNc1ccc(-c2nnc(S)n2C)cc1
inactive: TK-10 > 100 µM | COLO 205 > 100 µM | MDA-MB-435 > 100 µM | SW-620 > 100 µM | NCI-H522 > 100 µM | MCF7 > 100 µM | SK-MEL-2 > 100 µM | UACC-257 > 100 µM | LOX IMVI > 100 µM | SNB-19 > 100 µM | EKVX > 100 µM | HCT-116 > 100 µM | SNB-75 > 100 µM | M14 > 100 µM | NCI-H460 > 100 µM | OVCAR-4 > 100 µM | HL-60 > 100 µM | PC-3 > 100 µM | SK-MEL-28 > 100 µM

CC(=O)N1CC(C)(C)c2c1cc(C)c(O)c2C
inactive: TK-10 > 100 µM | COLO 205 > 100 µM | MDA-MB-435 > 100 µM | SW-620 > 100 µM | NCI-H522 > 100 µM | MCF7 > 100 µM | SK-MEL-2 > 100 µM | UACC-257 > 100 µM | LOX IMVI > 100 µM | SNB-19 > 100 µM | EKVX > 100 µM | HCT-116 > 100 µM | M14 > 100 µM | NCI-H460 > 100 µM | OVCAR-4 > 100 µM | HL-60 86.9 µM | PC-3 > 100 µM | SK-MEL-28 > 100 µM

Oc1nc(S)nc2c1C(c1ccc(Cl)cc1)c1c(O)nc(S)nc1O2
inactive: TK-10 > 100 µM | COLO 205 > 100 µM | MDA-MB-435 > 100 µM | SW-620 > 100 µM | NCI-H522 > 100 µM | MCF7 > 100 µM | SK-MEL-2 > 100 µM | UACC-257 > 100 µM | LOX IMVI > 100 µM | SNB-19 > 100 µM | EKVX > 100 µM | HCT-116 > 100 µM | M14 > 100 µM | NCI-H460 > 100 µM | OVCAR-4 > 100 µM | HL-60 > 100 µM | PC-3 > 100 µM | SK-MEL-28 > 100 µM

C=C(c1ccccc1)[C@@]1(O)CC[C@@H]1N(CC#N)Cc1ccccc1
inactive: TK-10 20.8 µM | COLO 205 16.3 µM | MDA-MB-435 22.5 µM | SW-620 18.2 µM | NCI-H522 20.6 µM | SK-MEL-2 20.9 µM | UACC-257 17.8 µM | SR 37.2 µM | LOX IMVI 19.1 µM | SNB-19 36.6 µM | EKVX 37.7 µM | HCT-116 16.6 µM | SNB-75 33.9 µM | M14 17.3 µM | NCI-H460 44.3 µM | OVCAR-4 15.3 µM | HL-60 32 µM | PC-3 22.9 µM | SK-MEL-28 17.2 µM

CSC1(CC(=O)N2CCCCC2)C(=O)Nc2ccccc21 (stereo not given)
inactive: TK-10 > 100 µM | COLO 205 > 100 µM | MDA-MB-435 > 100 µM | SW-620 > 100 µM | MCF7 > 100 µM | SK-MEL-2 > 100 µM | UACC-257 > 100 µM | LOX IMVI > 100 µM | SNB-19 > 100 µM | EKVX > 100 µM | HCT-116 > 100 µM | SNB-75 > 100 µM | M14 > 100 µM | NCI-H460 > 100 µM | OVCAR-4 > 100 µM | PC-3 > 100 µM | SK-MEL-28 > 100 µM

N/C(=N\c1ccc(Cl)cc1)NS(=O)(=O)c1cccc2nsnc12
inactive: TK-10 22.3 µM | SW-620 66.1 µM | NCI-H522 5.92 µM | MCF7 36.2 µM | SK-MEL-2 11.9 µM | UACC-257 13.9 µM | SR 33 µM | LOX IMVI 25.1 µM | SNB-19 72.8 µM | EKVX 19.7 µM | HCT-116 31.8 µM | SNB-75 > 100 µM | M14 27.9 µM | NCI-H460 19.1 µM | OVCAR-4 15.2 µM | HL-60 17.9 µM | PC-3 17.4 µM | SK-MEL-28 21 µM

O=[N+]([O-])C(C(Cl)=C(Cl)Cl)=C(N(Cc1ccccc1)Cc1ccccc1)N(Cc1ccccc1)Cc1ccccc1
inactive: TK-10 > 100 µM | COLO 205 57 µM | MDA-MB-435 28.2 µM | SW-620 > 100 µM | NCI-H522 > 100 µM | MCF7 > 100 µM | SK-MEL-2 36.4 µM | UACC-257 > 100 µM | LOX IMVI 32.4 µM | SNB-19 > 100 µM | EKVX 66.7 µM | HCT-116 42.1 µM | SNB-75 > 100 µM | M14 34.8 µM | NCI-H460 56.9 µM | HL-60 17.3 µM | PC-3 53.7 µM | SK-MEL-28 > 100 µM

O=c1c2ccccc2nc2n1C(c1ccc([N+](=O)[O-])cc1)C2(c1ccccc1)c1ccccc1 (stereo not given)
inactive: TK-10 > 100 µM | COLO 205 8.3 µM | MDA-MB-435 > 100 µM | SW-620 > 100 µM | NCI-H522 > 100 µM | MCF7 54.6 µM | SK-MEL-2 > 100 µM | UACC-257 > 100 µM | LOX IMVI > 100 µM | SNB-19 14.5 µM | EKVX > 100 µM | HCT-116 > 100 µM | M14 > 100 µM | NCI-H460 > 100 µM | OVCAR-4 > 100 µM | HL-60 37.2 µM | PC-3 24 µM | SK-MEL-28 > 100 µM
